Test results published in patent publication US20240092835A1, “NOVEL PEPTIDES CAPABLE OF ALTERING NK CELL ACTIVITY” (Massachusetts Institute of Technology, priority 2022, published 2024).

Assays:
NKG2A−/NKG2C+ NK cells = assay: NK cell activation markers in NKG2A-/NKG2C+ NK cells incubated with peptide and K562 expressing HLA-E (activation); type: cell-based, human; details: for effect on NKG2A−/NKG2C+ NK cell activation (in words): K562 expressing HLA-E, CD107a, IFNG, TNF, CCL3; for percentage of CCL3+ NK cells / percentage of CD107+ NK cells / percentage of IFNG+ NK cells / percentage of TNF+ NK cells: NKG2A-/NKG2C+ NK cells, K562/HLA-E
Method: (§1) A human immortalized myelogenous leukemia cell line (K562), which expresses HLA-E was incubated with novel peptides (Table 1) derived from the human proteome or human cytomegalovirus proteome. […] Controls assessments were also performed using NKG2A−/NKG2C− cells (Tables 10-13). Inhibition was indicated by a decrease in percent cells positive for cell surface markers, while activation was indicated by an increase in percent cells positive for cell surface markers.

NKG2A+/NKG2C− NK cells = assay: NK cell activation markers in NKG2A+/NKG2C- NK cells incubated with peptide and K562 expressing HLA-E (inhibition); type: cell-based, human; details: for percentage of CCL3+ NK cells / percentage of CD107a+ NK cells / percentage of IFNG+ NK cells / percentage of TNF+ NK cells: NKG2A+/NKG2C- NK cells, K562/HLA-E
Method: as §1

HLA-E = target: T1, HLA-E (Homo sapiens, UniProt P13747); assay: HLA-E surface stabilization assay with RMA-S/HLA-E cells; type: cell-based; details: 30 μM peptide, 16 hours; for HLA-E surface expression stability (GeoMFI): anti-HLA-E antibody
T1 construct: expressed in transfected cells; host or cells: RMA-S/HLA-E cells (antigen processing-defective lymphoma cell line)
T1 sequence (P13747 22-358): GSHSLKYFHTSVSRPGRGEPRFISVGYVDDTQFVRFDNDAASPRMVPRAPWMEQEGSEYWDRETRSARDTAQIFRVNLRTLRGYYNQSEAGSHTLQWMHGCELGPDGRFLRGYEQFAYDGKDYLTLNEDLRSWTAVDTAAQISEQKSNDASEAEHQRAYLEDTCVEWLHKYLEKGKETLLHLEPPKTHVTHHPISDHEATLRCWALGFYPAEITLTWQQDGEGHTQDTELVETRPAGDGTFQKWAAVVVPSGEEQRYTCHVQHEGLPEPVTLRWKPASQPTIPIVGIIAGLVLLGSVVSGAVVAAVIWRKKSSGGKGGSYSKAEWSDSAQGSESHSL
T1 sequence (P61769 21-119 partner): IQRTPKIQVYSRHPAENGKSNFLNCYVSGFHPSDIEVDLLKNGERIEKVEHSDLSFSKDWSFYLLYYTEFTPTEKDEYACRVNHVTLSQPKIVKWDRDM
Method: HLA-E surface expression was assessed by measuring geometric mean fluorescence intensity (GeoMFI) in RMA-S cells following immunofluorescence staining with an anti-HLA-E antibody (Table 14). Increased GeoMFI was indicative of increased HLA-E surface expression stability following novel peptide exposures (FIG. 3).

NKG2A−/NKG2C− NK cells = assay: NK cell activation markers in control NKG2A-/NKG2C- NK cells incubated with peptide and K562 expressing HLA-E; type: cell-based, human
Method: as §1

For “VLPHRTQFL [CMV1, novel CMV-derived peptide UL120 72-80, Merlin]”, the “effect on NKG2A−/NKG2C+ NK cell activation (in words)” value (NKG2A−/NKG2C+ NK cells) was “strong inhibitory and activating effects”, the “effect on NKG2A−/NKG2C+ NK cell activation (in words)” value (NKG2A−/NKG2C+ NK cells; listed as SEQ ID NO. 15) was “strong activating effects” and the “percentage of CCL3+ NK cells” value (NKG2A−/NKG2C+ NK cells; Trial 1) was 80.1%. For the same sequence, the “percentage of CD107+ NK cells” value (NKG2A−/NKG2C+ NK cells; Trial 1) was 77.3%, the “percentage of IFNG+ NK cells” value (NKG2A−/NKG2C+ NK cells; Trial 1) was 66.3% and the “percentage of TNF+ NK cells” value (NKG2A−/NKG2C+ NK cells; Trial 1) was 53.3%. The “percentage of CCL3+ NK cells” value (NKG2A−/NKG2C+ NK cells; Trial 2) was 90.4%, the “percentage of CD107+ NK cells” value (NKG2A−/NKG2C+ NK cells; Trial 2) was 87.2% and the “percentage of IFNG+ NK cells” value (NKG2A−/NKG2C+ NK cells; Trial 2) was 82.8%. For the same sequence, the “percentage of TNF+ NK cells” value (NKG2A−/NKG2C+ NK cells; Trial 2) was 76.1%, the “percentage of CCL3+ NK cells” value (NKG2A−/NKG2C+ NK cells; Trial 3) was 86.5% and the “percentage of CD107+ NK cells” value (NKG2A−/NKG2C+ NK cells; Trial 3) was 86.2%. The “percentage of IFNG+ NK cells” value (NKG2A−/NKG2C+ NK cells; Trial 3) was 78.5%, the “percentage of TNF+ NK cells” value (NKG2A−/NKG2C+ NK cells; Trial 3) was 68.8% and the “percentage of CCL3+ NK cells” value (NKG2A−/NKG2C+ NK cells; Trial 4) was 67.5%. For the same sequence, the “percentage of CD107+ NK cells” value (NKG2A−/NKG2C+ NK cells; Trial 4) was 67.3%, the “percentage of IFNG+ NK cells” value (NKG2A−/NKG2C+ NK cells; Trial 4) was 58.2% and the “percentage of TNF+ NK cells” value (NKG2A−/NKG2C+ NK cells; Trial 4) was 51%. For the same sequence, the “percentage of CCL3+ NK cells” value (NKG2A−/NKG2C+ NK cells; Trial 5) was 78.1%, the “percentage of CD107+ NK cells” value (NKG2A−/NKG2C+ NK cells; Trial 5) was 76.9% and the “percentage of IFNG+ NK cells” value (NKG2A−/NKG2C+ NK cells; Trial 5) was 69.5%. The “percentage of TNF+ NK cells” value (NKG2A−/NKG2C+ NK cells; Trial 5) was 66%, the “percentage of CCL3+ NK cells” value (NKG2A−/NKG2C+ NK cells; Trial 6) was 58.3% and the “percentage of CD107+ NK cells” value (NKG2A−/NKG2C+ NK cells; Trial 6) was 53.4%. For the same sequence, the “percentage of IFNG+ NK cells” value (NKG2A−/NKG2C+ NK cells; Trial 6) was 42.5%, the “percentage of TNF+ NK cells” value (NKG2A−/NKG2C+ NK cells; Trial 6) was 33.3% and the “effect on NKG2A+/NKG2C− NK cell inhibition (in words)” value (NKG2A+/NKG2C− NK cells; K562 expressing HLA-E, CD107a, IFNG, TNF, CCL3) was “strong inhibitory”. For the same sequence, the “percentage of CCL3+ NK cells” value (NKG2A+/NKG2C− NK cells; Trial 1) was 3.55%, the “percentage of CD107a+ NK cells” value (NKG2A+/NKG2C− NK cells; Trial 1) was 2.12% and the “percentage of IFNG+ NK cells” value (NKG2A+/NKG2C− NK cells; Trial 1) was 0.46%. For the same sequence, the “percentage of TNF+ NK cells” value (NKG2A+/NKG2C− NK cells; Trial 1) was 0.27%, the “percentage of CCL3+ NK cells” value (NKG2A+/NKG2C− NK cells; Trial 2) was 7.82% and the “percentage of CD107a+ NK cells” value (NKG2A+/NKG2C− NK cells; Trial 2) was 3.42%. The “percentage of IFNG+ NK cells” value (NKG2A+/NKG2C− NK cells; Trial 2) was 1.08%, the “percentage of TNF+ NK cells” value (NKG2A+/NKG2C− NK cells; Trial 2) was 0.39% and the “percentage of CCL3+ NK cells” value (NKG2A+/NKG2C− NK cells; Trial 3) was 7.91%. The “percentage of CD107a+ NK cells” value (NKG2A+/NKG2C− NK cells; Trial 3) was 4.2%, the “percentage of IFNG+ NK cells” value (NKG2A+/NKG2C− NK cells; Trial 3) was 2.52% and the “percentage of TNF+ NK cells” value (NKG2A+/NKG2C− NK cells; Trial 3) was 1.09%. For the same sequence, the “percentage of CCL3+ NK cells” value (NKG2A+/NKG2C− NK cells; Trial 4) was 3.5%, the “percentage of CD107a+ NK cells” value (NKG2A+/NKG2C− NK cells; Trial 4) was 3.15% and the “percentage of IFNG+ NK cells” value (NKG2A+/NKG2C− NK cells; Trial 4) was 0.93%. The “percentage of TNF+ NK cells” value (NKG2A+/NKG2C− NK cells; Trial 4) was 0.7%, the “percentage of CCL3+ NK cells” value (NKG2A+/NKG2C− NK cells; Trial 5) was 14.5% and the “percentage of CD107a+ NK cells” value (NKG2A+/NKG2C− NK cells; Trial 5) was 3.92%. For the same sequence, the “percentage of IFNG+ NK cells” value (NKG2A+/NKG2C− NK cells; Trial 5) was 1.35%, the “percentage of TNF+ NK cells” value (NKG2A+/NKG2C− NK cells; Trial 5) was 0.82% and the “percentage of CCL3+ NK cells” value (NKG2A+/NKG2C− NK cells; Trial 6) was 3.86%. For the same sequence, the “percentage of CD107a+ NK cells” value (NKG2A+/NKG2C− NK cells; Trial 6) was 2.27%, the “percentage of IFNG+ NK cells” value (NKG2A+/NKG2C− NK cells; Trial 6) was 0.82% and the “percentage of TNF+ NK cells” value (NKG2A+/NKG2C− NK cells; Trial 6) was 0.34%. For the same sequence, the “HLA-E surface expression stability (GeoMFI)” value (HLA-E; Trial 1) was 2140 GeoMFI, the “HLA-E surface expression stability (GeoMFI)” value (HLA-E; Trial 2) was 1714 GeoMFI and the “HLA-E surface expression stability (GeoMFI)” value (HLA-E; Trial 3) was 2014 GeoMFI. For the same sequence, the “HLA-E surface expression stability (GeoMFI)” value (HLA-E; Trial 4) was 2421 GeoMFI, the “HLA-E surface expression stabilization strength, approximate GeoMFI” value (HLA-E; approximate value) was “approximately 2×10^3 GeoMFI” and the “percentage CCL3+ NK cells” value (NKG2A−/NKG2C− NK cells; Trial 1) was 29.9%. For the same sequence, the “percentage CD107+ NK cells” value (NKG2A−/NKG2C− NK cells; Trial 1) was 21.4%, the “percentage TNF+ NK cells” value (NKG2A−/NKG2C− NK cells; Trial 1) was 2.62% and the “percentage of IFNG+ NK cells” value (NKG2A−/NKG2C− NK cells; Trial 1) was 13.5%. The “percentage CCL3+ NK cells” value (NKG2A−/NKG2C− NK cells; Trial 2) was 52.4%, the “percentage CD107+ NK cells” value (NKG2A−/NKG2C− NK cells; Trial 2) was 32.5% and the “percentage TNF+ NK cells” value (NKG2A−/NKG2C− NK cells; Trial 2) was 9.43%. The “percentage of IFNG+ NK cells” value (NKG2A−/NKG2C− NK cells; Trial 2) was 27.7%, the “percentage CCL3+ NK cells” value (NKG2A−/NKG2C− NK cells; Trial 3) was 47.3% and the “percentage CD107+ NK cells” value (NKG2A−/NKG2C− NK cells; Trial 3) was 41.9%. For the same sequence, the “percentage TNF+ NK cells” value (NKG2A−/NKG2C− NK cells; Trial 3) was 13.6%, the “percentage of IFNG+ NK cells” value (NKG2A−/NKG2C− NK cells; Trial 3) was 36.7% and the “percentage CCL3+ NK cells” value (NKG2A−/NKG2C− NK cells; Trial 4) was 27.2%. The “percentage CD107+ NK cells” value (NKG2A−/NKG2C− NK cells; Trial 4) was 25.7%, the “percentage TNF+ NK cells” value (NKG2A−/NKG2C− NK cells; Trial 4) was 8.63% and the “percentage of IFNG+ NK cells” value (NKG2A−/NKG2C− NK cells; Trial 4) was 17.4%. For the same sequence, the “percentage CCL3+ NK cells” value (NKG2A−/NKG2C− NK cells; Trial 5) was 26.6%, the “percentage CD107+ NK cells” value (NKG2A−/NKG2C− NK cells; Trial 5) was 18.6% and the “percentage TNF+ NK cells” value (NKG2A−/NKG2C− NK cells; Trial 5) was 6.68%. For the same sequence, the “percentage of IFNG+ NK cells” value (NKG2A−/NKG2C− NK cells; Trial 5) was 14.6%, the “percentage CCL3+ NK cells” value (NKG2A−/NKG2C− NK cells; Trial 6) was 19.1% and the “percentage CD107+ NK cells” value (NKG2A−/NKG2C− NK cells; Trial 6) was 14.5%. For the same sequence, the “percentage TNF+ NK cells” value (NKG2A−/NKG2C− NK cells; Trial 6) was 2.86% and the “percentage of IFNG+ NK cells” value (NKG2A−/NKG2C− NK cells; Trial 6) was 8.57%.
